The series deals with CCRIS mutagenicity, Ames/micronucleus/aberration tests. Put plainly: CCRIS mutagenicity studies.
Setting [1] is: Test System: AMES SALMONELLA TYPHIMURIUM, Strain/Indicator: TA98, Metabolic Activation: NONE, Method: STANDARD PLATE.
Setting [2] is: Test System: AMES SALMONELLA TYPHIMURIUM, Strain/Indicator: TA98, Metabolic Activation: RAT, LIVER, S-9, AROCLOR 1254, Method: STANDARD PLATE.
[3] abbreviates: Test System: AMES SALMONELLA TYPHIMURIUM, Strain/Indicator: TA100, Metabolic Activation: NONE, Method: STANDARD PLATE.
The mark [4] stands for this setting: Test System: AMES SALMONELLA TYPHIMURIUM, Strain/Indicator: TA100, Metabolic Activation: RAT, LIVER, S-9, AROCLOR 1254, Method: STANDARD PLATE.
The mark [5] stands for this setting: Test System: AMES SALMONELLA TYPHIMURIUM, Strain/Indicator: TA97, Metabolic Activation: HAMSTER, LIVER, S-9, AROCLOR 1254 (10 OR 30%), Method: PREINCUBATION
Setting [6] is: Test System: AMES SALMONELLA TYPHIMURIUM, Strain/Indicator: TA97, Metabolic Activation: NONE, Method: PREINCUBATION
The mark [7] stands for this setting: Test System: AMES SALMONELLA TYPHIMURIUM, Strain/Indicator: TA97, Metabolic Activation: RAT, LIVER, S-9, AROCLOR 1254 (10 OR 30%), Method: PREINCUBATION
[8] abbreviates: Test System: AMES SALMONELLA TYPHIMURIUM, Strain/Indicator: TA98, Metabolic Activation: HAMSTER, LIVER, S-9, AROCLOR 1254 (10 OR 30%), Method: PREINCUBATION
Setting [9] is: Test System: AMES SALMONELLA TYPHIMURIUM, Strain/Indicator: TA98, Metabolic Activation: NONE, Method: PREINCUBATION
The mark [10] stands for this setting: Test System: AMES SALMONELLA TYPHIMURIUM, Strain/Indicator: TA98, Metabolic Activation: RAT, LIVER, S-9, AROCLOR 1254 (10 OR 30%), Method: PREINCUBATION
Where [11] appears, read: Test System: AMES SALMONELLA TYPHIMURIUM, Strain/Indicator: TA100, Metabolic Activation: HAMSTER, LIVER, S-9, AROCLOR 1254 (10 OR 30%), Method: PREINCUBATION
Where [12] appears, read: Test System: AMES SALMONELLA TYPHIMURIUM, Strain/Indicator: TA100, Metabolic Activation: NONE, Method: PREINCUBATION
Where [13] appears, read: Test System: AMES SALMONELLA TYPHIMURIUM, Strain/Indicator: TA100, Metabolic Activation: RAT, LIVER, S-9, AROCLOR 1254 (10 OR 30%), Method: PREINCUBATION
Setting [14] is: Test System: AMES SALMONELLA TYPHIMURIUM, Strain/Indicator: TA1535, Metabolic Activation: HAMSTER, LIVER, S-9, AROCLOR 1254 (10 OR 30%), Method: PREINCUBATION
[15] abbreviates: Test System: AMES SALMONELLA TYPHIMURIUM, Strain/Indicator: TA1535, Metabolic Activation: NONE, Method: PREINCUBATION
[16] abbreviates: Test System: AMES SALMONELLA TYPHIMURIUM, Strain/Indicator: TA1535, Metabolic Activation: RAT, LIVER, S-9, AROCLOR 1254 (10 OR 30%), Method: PREINCUBATION

Calls of active or inactive are those of the source. How the calls were made is not given here.

As to `O=[N+]([O-])c1ccc(N=Nc2ccc(N(CCO)CCO)cc2)c([N+](=O)[O-])c1`, the mutagenic call under setting [1] is “active; positive”; the mutagenic call under setting [2] was “active; positive”; the mutagenic call under setting [3] was “active; positive”; the mutagenic call under setting [4] was “active; positive”; the mutagenic call (Test System: AMES SALMONELLA TYPHIMURIUM, Strain/Indicator: TA1535, Metabolic Activation: NONE, Method: STANDARD PLATE) is “active; positive”; the mutagenic call (Test System: AMES SALMONELLA TYPHIMURIUM, Strain/Indicator: TA1535, Metabolic Activation: RAT, LIVER, S-9, AROCLOR 1254, Method: STANDARD PLATE) was “active; positive”. In addition, the mutagenic call is, setting by setting: (Test System: AMES SALMONELLA TYPHIMURIUM, Strain/Indicator: TA1537, Metabolic Activation: NONE, Method: STANDARD PLATE) “active; positive”; (Test System: AMES SALMONELLA TYPHIMURIUM, Strain/Indicator: TA1537, Metabolic Activation: RAT, LIVER, S-9, AROCLOR 1254, Method: STANDARD PLATE) “active; positive”; (Test System: AMES SALMONELLA TYPHIMURIUM, Strain/Indicator: TA1538, Metabolic Activation: NONE, Method: STANDARD PLATE) “active; positive”; (Test System: AMES SALMONELLA TYPHIMURIUM, Strain/Indicator: TA1538, Metabolic Activation: RAT, LIVER, S-9, AROCLOR 1254, Method: STANDARD PLATE) “active; positive”; (Test System: CHINESE HAMSTER V-79, Strain/Indicator: V-79 (HGPRT)/6-THIOGUANINE, Metabolic Activation: RAT, LIVER, S-9, AROCLOR 1254) “active; positive”; (Test System: CHINESE HAMSTER V-79, Strain/Indicator: V-79/6-THIOGUANINE, Metabolic Activation: NONE) “inactive; negative”. Moreover, for the setting “Test System: UDS RAT HEPATOCYTES, Strain/Indicator: THY INCORP, Metabolic Activation: NONE, Method: AUTORADIOGRAPHY”, the mutagenic call is “inactive; negative”.

`O=[N+]([O-])c1ccc2c(c1)CC=C2`: the mutagenic call under setting [1] was “active; positive”.

On to `CCCCCCC[CH2][Sn]([Cl])([Cl])[CH2]CCCCCCC`, for which the mutagenic call is “active; positive” (Test System: CHINESE HAMSTER V-79, Strain/Indicator: V-79/8-AZAGUANINE, Metabolic Activation: NONE) and “inactive; negative” (Test System: CHINESE HAMSTER V-79, Strain/Indicator: V-79/8-AZAGUANINE, Metabolic Activation: RAT HEPATOCYTES).

With `CC(C)c1ccccc1OP(=O)(Oc1ccccc1)Oc1ccccc1`, the mutagenic call is, setting by setting: under setting [5], “inactive; negative”; under setting [6], “inactive; negative”; under setting [7], “inactive; negative”; under setting [8], “inactive; negative”; under setting [9], “inactive; negative”; under setting [10], “inactive; negative”. The mutagenic call is “inactive; negative” under setting [11]; “inactive; negative” under setting [12]; “inactive; negative” under setting [13]; “inactive; negative” under setting [14]; “inactive; negative” under setting [15]; “inactive; negative” under setting [16].

Regarding `C[C@]12CC[C@@H]3c4ccc(O)cc4CC[C@H]3[C@@H]1C[C@@H](O)C2=O`, the mutagenic call is “inactive; negative” (Test System: Ames Salmonella typhimurium, Strain/Indicator: TA98, Metabolic Activation: None, Method: Standard plate); “inactive; negative” (Test System: Ames Salmonella typhimurium, Strain/Indicator: TA98, Metabolic Activation: Rat, liver, S-9, Method: Standard plate); “inactive; negative” (Test System: Ames Salmonella typhimurium, Strain/Indicator: TA100, Metabolic Activation: None, Method: Standard plate); “inactive; negative” (Test System: Ames Salmonella typhimurium, Strain/Indicator: TA100, Metabolic Activation: Rat, liver, S-9, Method: Standard plate).

For the compound `O=C(c1ccccc1)C1OC1c1ccc(-c2ccccc2)cc1` (stereo unspecified), the mutagenic call is “inactive; negative” under setting [1], “inactive; negative” under setting [2], “inactive; negative” under setting [3] and “inactive; negative” under setting [4].

As to `C=CC1(C)CO1` (stereo unspecified), the mutagenic call is, setting by setting: (End Point: IN VIVO MICRONUCLEUS, Test System: BONE MARROW POLYCHROMATIC ERYTHROCYTES, Species: MOUSE, Strain/Sex: C57/BL/MALE, Route: INTRAPERITONEAL INJECTION) “active; positive”; under setting [1], “inactive; negative”; under setting [3], “inactive; negative”.

With `CC(C)(C)NC[C@H](O)COc1ccc(O)cc1C1CCCC1`, the mutagenic call was “inactive; negative” under setting [1] and “inactive; negative” under setting [2].

As for `[CH3][Sn]([CH3])([CH3])[Cl]`, the mutagenic call was “inactive; negative” (Test System: AMES SALMONELLA TYPHIMURIUM, Strain/Indicator: TA98, Metabolic Activation: NONE, Method: SUSPENSION/PLATE) and “inactive; negative” (Test System: AMES SALMONELLA TYPHIMURIUM, Strain/Indicator: TA100, Metabolic Activation: NONE, Method: SUSPENSION/PLATE).

For the compound `CC(=O)N(O)c1ccc(O)cc1`, the mutagenic call (End Point: IN VITRO MICRONUCLEUS, Test System: RAT KIDNEY FIBROBLAST NRK-49F, Metabolic Activation: NONE) was “active; positive”.

For the compound `CCCCCCCCCc1ccccc1Oc1ccccc1CCCCCCCCC`, the mutagenic call (Test System: AMES SALMONELLA TYPHIMURIUM, Strain/Indicator: TA97, Metabolic Activation: NONE, Method: STANDARD PLATE) was “inactive; negative”; the mutagenic call (Test System: AMES SALMONELLA TYPHIMURIUM, Strain/Indicator: TA97, Metabolic Activation: S-9, Method: STANDARD PLATE) was “inactive; negative”; the mutagenic call under setting [1] is “inactive; negative”; the mutagenic call (Test System: AMES SALMONELLA TYPHIMURIUM, Strain/Indicator: TA98, Metabolic Activation: S-9, Method: STANDARD PLATE) was “inactive; negative”; the mutagenic call under setting [3] was “inactive; negative”; the mutagenic call (Test System: AMES SALMONELLA TYPHIMURIUM, Strain/Indicator: TA100, Metabolic Activation: S-9, Method: STANDARD PLATE) is “inactive; negative”. Moreover, the mutagenic call reads like this: (Test System: AMES SALMONELLA TYPHIMURIUM, Strain/Indicator: TA102, Metabolic Activation: NONE, Method: STANDARD PLATE) “inactive; negative”; (Test System: AMES SALMONELLA TYPHIMURIUM, Strain/Indicator: TA102, Metabolic Activation: S-9, Method: STANDARD PLATE) “inactive; negative”; (Test System: E.COLI, Strain/Indicator: WP2 (PKM101), Metabolic Activation: NONE, Method: STANDARD PLATE) “inactive; negative”; (Test System: E.COLI, Strain/Indicator: WP2 (PKM101), Metabolic Activation: S-9, Method: STANDARD PLATE) “inactive; negative”.

As for `COc1ccc2c3c1O[C@H]1[C@@H](O)C=C[C@H]4[C@@H](C2)N(C)CC[C@@]341`, the mutagenic call was “inactive; negative” under setting [5]; “inactive; negative” under setting [6]; “inactive; negative” under setting [7]; “inactive; negative” under setting [8]; “inactive; negative” under setting [9]; “inactive; negative” under setting [10]. Moreover, the mutagenic call is “inactive; negative” under setting [11]; “inactive; negative” under setting [12]; “inactive; negative” under setting [13]; “inactive; negative” under setting [14]; “inactive; negative” under setting [15]; “inactive; negative” under setting [16].
